Measured values: patent US12624057B2, “Bisphosphonate quinolone conjugates and uses thereof” (BIOVINC, LLC, priority 2016, dated 2026)
“Also recorded” adds a separate entry of the source.

Legend:
[1] = tested on: Aggregatibacter actinomycetemcomitans (Aa; wild-type rough strain D7S-1; serotype a); assay: Disc diffusion inhibition zone assay on Aa; type: cell-based
Description: Since this BP-ciprofloxacin conjugate is novel and has not been tested in vivo, we performed an initial safety and efficacy study in an animal model of peri-implant osteomyelitis. This model is a unique in-house jawbone peri-implant osteomyelitis model that was developed specifically for translational value to study biofilm-mediated disease and host response in vivo (Freire, et al, Development of animal model for Aggregatibacter actinomycetemcomitans biofilm-mediated oral osteolytic infection: a preliminary study. J Periodontol 2011; 82:778-89). […] After biofilms are established on the implants in vitro, they are surgically transferred to the jawbone of each rat. Animals are anesthetized, the cheeks are retracted and a transmucosal osteotomy is performed so implants can be manually inserted into the osteotomy and secured. Two biofilm-inoculated implants are placed in each rat (n=12 rats and 24 implants) in the palatal bone bilaterally.
Next, inhibition zones were recorded using a ruler.
After biofilms were established on the implants in vitro, they were surgically transferred to the jawbone of each rat. For surgery, animals were anesthetized with 4% isoflurane inhalant initially followed by intraperitoneal injection of ketamine (80-90 mg/kg) plus xylazine (5-10 mg/kg). Then local anesthesia was given via infiltration injection of bupivicaine 0.25% at the surgical site. […]

[2] = tested on: planktonic S. aureus strain ATCC-6538; assay: Antimicrobial susceptibility testing in acidic versus basic/physiological pH; type: cell-based, Staphylococcus aureus; settings: acidic (pH 5) versus basic/physiological (pH 7.4)
Method: (§1) Antimicrobial susceptibility testing of BP-ciprofloxacin against planktonic cultures of S. aureus strain ATCC-6538 in acidic versus basic pH: This experimental setting was performed in the same manner as described previously for disc diffusion testing, but microbiological media was adjusted to pH 7.4 and pH 5 using KOH or HCL solution and measured using a universal pH-indicator (Merck, Poland).
as §1, with “6” for “BP-ciprofloxacin”, “physiological” for “basic”

[3] = In vivo tolerability during the rat peri-implant osteomyelitis studies; design: species or system Sprague-Dawley rats; settings: intraperitoneal
Description: To determine appropriate dosing concentrations, we calculated approximate initial doses for the conjugate based on previous studies and pharmacokinetic data using similar target and release strategies and also rodents (Houghton, et al., Linking bisphosphonates to the free amino groups in fluoroquinolones: preparation of osteotropic prodrugs for the prevention of osteomyelitis. J Med Chem 2008; 51:6955-69; Morioka, et al., Design, synthesis, and biological evaluation of novel estradiol-bisphosphonate conjugates as bone-specific estrogens. Bioorg Med Chem 2010; 18:1143-8). We expected that increasing doses of 0.1, 1 and 10 mg/kg BP-ciprofloxacin molar equivalents will allow us to determine antimicrobial activity in 2 test animals per group based on sample size estimations and previous experience with the animal model (Freire, et al, Development of animal model for Aggregatibacter actinomycetemcomitans biofilm-mediated oral osteolytic infection: a preliminary study. J Periodontol 2011; 82:778-89). Animals were dosed via intraperitoneal injection under general anesthesia, and all compounds were constituted in sterile physiological injectable saline at appropriate pH. One week after pharmacotherapy, all animals were sacrificed and resection of peri-implant tissues was performed, and tissues were immediately homogenized and processed for quantitative assessment of microbial load. Animals were monitored throughout the study period for local or systemic adverse effects of pharmacotherapy.
To determine appropriate dosing concentrations, approximate initial doses were calculated for the conjugate based on previous studies and pharmacokinetic data using similar target and release strategies also in rodents.^13, 26 Increasing doses of 0.1, 1 and 10 mg/kg molar equivalents of 6 can allow for determination of antimicrobial activity in 2 test animals per group based on sample size estimations and previous experience with the animal model.^32 Animals were dosed via intraperitoneal injection under general anesthesia, and all compounds were constituted in sterile physiological injectable saline at appropriate pH.

[4] = Hydroxyapatite (HA) binding assay, spectroscopic analysis of supernatant; type: physicochemical; settings: supernatant at 0 hr versus 24 hrs, TSB medium
Method: Solutions containing BP-ciprofloxacin and HA spherules were introduced to wells of 24-well plate. […] Plates were shaken automatically in the spectrometer prior to assessment. Next, plates were left for 24 h/37° C./shaking. After 24 hours, absorbance was measured once again. To assess the relative concentration of the conjugate at 0 hr and 24 hrs, values of absorbance taken in the beginning and at the end of experiment were compared.
Spectroscopic analysis of 6 and 11 in Tryptic Soy Broth (TSB) microbiological media with the addition of HA spherules: Various conjugate concentrations were introduced to HA powder (spherules) suspended in TSB microbiological medium. Solutions containing BP-ciprofloxacin an HA spherules were introduced to wells of a 24-well plate. […] Plates were shaken automatically in the spectrometer prior to assessment. Next, plates were left for 24 hrs/37° C./shaking. After 24 hrs, absorbance was measured once again. To assess the relative concentration of the conjugate at 0 hr and 24 hrs, values of absorbance taken in the beginning and at the end of experiment were compared. The excitation slit, emission slit, integration time, and increment were optimized based on the concentration of samples.

[5] = tested on: Aggregatibacter actinomycetemcomitans biofilms on titanium implants; assay: Rat jawbone peri-implant osteomyelitis model, second animal experiment; settings: for reduction of mean CFU/gram of tissue versus control (in words): single high dose 10 mg/kg, 10 mg/kg
[6] = tested on: Aggregatibacter actinomycetemcomitans biofilms on titanium implants; assay: Rat jawbone peri-implant osteomyelitis model, first animal experiment; type: in vivo, Sprague-Dawley rats; settings: conjugate, 0.3 mg/kg ×3 over a week (0.9 mg/kg total)

## O=C(O)c1cn(C2CC2)c2cc(N3CCNCC3)c(F)cc2c1=O [ciprofloxacin, reference compound]
[1]
  disc diffusion inhibition zone diameters: > 40 mm

## O=C(O)c1cn(C2CC2)c2cc(N3CCN(C(=O)Oc4ccc(CC(P(=O)(O)O)P(=O)(O)O)cc4)CC3)c(F)cc2c1=O [Compound 6, 1-cyclopropyl-7-(4-((4-(2,2-diphosphonoethyl)phenoxy)carbonyl)piperazin-1-yl)-6-fluoro-4-oxo-1,4-dihydroquinoline-3-carboxylic acid]
[2]
  effect of pH on antimicrobial activity / concentration to reach MIC50: half the conjugate concentration; also recorded: slightly improved profile in acidic conditions
[2]; listed as BP-ciprofloxacin
  effect of pH on antimicrobial activity / concentration to reach MIC50: half the conjugate concentration; also recorded: improved bactericidal profile in acidic
[3]; first animal experiment, listed as BCC
  tolerability / adverse events: no potential systemic toxicity or adverse effects
[3]; first animal experiment, listed as BP-ciprofloxacin
  tolerability / adverse events: safety and efficacy was demonstrated in vivo
[3]; second animal experiment
  tolerability / adverse events: no signs of gross tolerability issues during therapy
[3]; second animal experiment, listed as BCC
  tolerability / adverse events: tolerated treatment and pharmacotherapy well with no adverse events
[4]
  adsorption to hydroxyapatite (HA): significant adsorption and retention of the conjugate by HA; also recorded: effective adsorption and retention to HA spherules
[4]; listed as BCC
  adsorption to hydroxyapatite (HA): taken up by the HA beads; also recorded: confirms adsorption of conjugate to HA
[4]; listed as BP-ciprofloxacin
  adsorption to hydroxyapatite (HA): significant adsorption and retention of the conjugate by HA
[5]; majority of animals in the treatment groups
  peri-implant inflammation at resection (in words): non-inflamed peri-implant tissues
[5]; multiple low dose 0.3 mg/kg 3×/week
  significance of CFU reduction versus control (in words): not for the multiple low dose group
[5]; single dose 10 mg/kg
  kill of Aa in peri-implant tissue: approximately 6 log units
[5]
  reduction of mean CFU/gram of tissue versus control (in words): revealed significance for the single high dose of 6 treatment as compared to the control; also recorded: greatest CFU reduction and efficacy was observed at the single high dose; also recorded: greatest efficacy was observed at a single high dose
[5]; listed as BCC
  reduction of mean CFU/gram of tissue versus control (in words): greatest efficacy and was highly statistically significant; also recorded: greatest efficacy was again observed at a single high dose
[6]
  bacterial killing: 100%
  recovery of bacteria (in words): no recoverable bacteria
[6]; listed as BP-ciprofloxacin
  recovery of bacteria (in words): no recovery of Aa; also recorded: no recoverable bacteria
